Results published in PubChem BioAssay (NCI).
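48-hour exposure; five concentrations; linearly interpolated endpoints. GI50: concentration for 50% inhibition of growth. TGI: concentration producing complete growth inhibition.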

Legend:
Experiment in all cases: inhibition of tumour cell growth, NCI panel, 48 h
SF-295 CNS = tested on: SF-295 CNS
K-562 leukemia = tested on: K-562 leukemia
SNB-19 CNS = tested on: SNB-19 CNS
UACC-62 melanoma = tested on: UACC-62 melanoma
M14 melanoma = tested on: M14 melanoma
UO-31 renal = tested on: UO-31 renal
SK-MEL-5 melanoma = tested on: SK-MEL-5 melanoma
KM12 colon = tested on: KM12 colon
OVCAR-3 ovarian = tested on: OVCAR-3 ovarian
HT29 colon = tested on: HT29 colon
DU-145 prostate = tested on: DU-145 prostate
NCI-H460 lung = tested on: NCI-H460 lung
OVCAR-5 ovarian = tested on: OVCAR-5 ovarian
MDA-MB-231 breast = tested on: MDA-MB-231 breast
MCF7 breast = tested on: MCF7 breast
HS 578T breast = tested on: HS 578T breast
CCRF-CEM leukemia = tested on: CCRF-CEM leukemia
NCI/ADR-RES ovarian = tested on: NCI/ADR-RES ovarian
SN12C renal = tested on: SN12C renal
SNB-75 CNS = tested on: SNB-75 CNS
SK-OV-3 ovarian = tested on: SK-OV-3 ovarian
MALME-3M melanoma = tested on: MALME-3M melanoma
CAKI-1 renal = tested on: CAKI-1 renal
TK-10 renal = tested on: TK-10 renal
RXF 393 renal = tested on: RXF 393 renal
ACHN renal = tested on: ACHN renal
SR leukemia = tested on: SR leukemia
A498 renal = tested on: A498 renal
NCI-H522 lung = tested on: NCI-H522 lung
SK-MEL-28 melanoma = tested on: SK-MEL-28 melanoma
MOLT-4 leukemia = tested on: MOLT-4 leukemia
RPMI-8226 leukemia = tested on: RPMI-8226 leukemia
SF-268 CNS = tested on: SF-268 CNS
PC-3 prostate = tested on: PC-3 prostate
U251 CNS = tested on: U251 CNS
A549 NSCLC = tested on: A549 NSCLC
HCT-15 colon = tested on: HCT-15 colon
COLO 205 colon = tested on: COLO 205 colon
UACC-257 melanoma = tested on: UACC-257 melanoma
HOP-62 NSCLC = tested on: HOP-62 NSCLC
HCC-2998 colon = tested on: HCC-2998 colon
MDA-MB-435 = tested on: MDA-MB-435
SW-620 colon = tested on: SW-620 colon
HL-60(TB) leukemia = tested on: HL-60(TB) leukemia
LOX IMVI melanoma = tested on: LOX IMVI melanoma
SF-539 CNS = tested on: SF-539 CNS
NCI-H226 lung = tested on: NCI-H226 lung
786-0 renal = tested on: 786-0 renal
HCT-116 colon = tested on: HCT-116 colon
EKVX NSCLC = tested on: EKVX NSCLC
OVCAR-8 ovarian = tested on: OVCAR-8 ovarian
HOP-92 NSCLC = tested on: HOP-92 NSCLC
OVCAR-4 ovarian = tested on: OVCAR-4 ovarian
T-47D breast = tested on: T-47D breast
BT-549 breast = tested on: BT-549 breast
NCI-H23 lung = tested on: NCI-H23 lung
IGROV1 ovarian = tested on: IGROV1 ovarian

O=c1oc2ccccc2c(Cl)c1Cl
GI50 (SF-295 CNS): 11.7 µM
TGI (SF-295 CNS): 28.4 µM
GI50 (K-562 leukemia): 2.63 µM
TGI (K-562 leukemia): > 100 µM
GI50 (SNB-19 CNS): 10.5 µM
TGI (SNB-19 CNS): 22.7 µM
GI50 (UACC-62 melanoma): 4.82 µM
TGI (UACC-62 melanoma): 18.1 µM
GI50 (M14 melanoma): 3.47 µM
TGI (M14 melanoma): 14.1 µM
GI50 (UO-31 renal): 1.83 µM
TGI (UO-31 renal): 4.73 µM
GI50 (SK-MEL-5 melanoma): 4.94 µM
TGI (SK-MEL-5 melanoma): 16.9 µM
GI50 (KM12 colon): 3.61 µM
TGI (KM12 colon): 13.7 µM
GI50 (OVCAR-3 ovarian): 1.94 µM
TGI (OVCAR-3 ovarian): 4.38 µM
GI50 (HT29 colon): 2.25 µM
TGI (HT29 colon): 4.85 µM
GI50 (DU-145 prostate): 3.02 µM
TGI (DU-145 prostate): 12.1 µM
GI50 (NCI-H460 lung): 3.21 µM
TGI (NCI-H460 lung): 12.1 µM
GI50 (OVCAR-5 ovarian): 14.7 µM
TGI (OVCAR-5 ovarian): 30.1 µM
GI50 (MDA-MB-231 breast): 2.48 µM
TGI (MDA-MB-231 breast): 6.2 µM
GI50 (MCF7 breast): 2.83 µM
TGI (MCF7 breast): 10.6 µM
GI50 (HS 578T breast): 2.69 µM
TGI (HS 578T breast): 9.71 µM
GI50 (CCRF-CEM leukemia): 0.595 µM
TGI (CCRF-CEM leukemia): 30 µM
GI50 (NCI/ADR-RES ovarian): 5.85 µM
TGI (NCI/ADR-RES ovarian): 21.4 µM
GI50 (SN12C renal): 4.58 µM
TGI (SN12C renal): 16.8 µM
GI50 (SNB-75 CNS): 2.85 µM
TGI (SNB-75 CNS): 12.9 µM
GI50 (SK-OV-3 ovarian): 13.3 µM
TGI (SK-OV-3 ovarian): 87.3 µM
GI50 (MALME-3M melanoma): 2.23 µM
TGI (MALME-3M melanoma): 12.4 µM
GI50 (CAKI-1 renal): 2.69 µM
TGI (CAKI-1 renal): 8.97 µM
GI50 (TK-10 renal): 1.88 µM
TGI (TK-10 renal): 3.7 µM
GI50 (RXF 393 renal): 1.95 µM
TGI (RXF 393 renal): 4.31 µM
GI50 (ACHN renal): 2.49 µM
TGI (ACHN renal): 5.92 µM
GI50 (SR leukemia): 2.29 µM
TGI (SR leukemia): 65.8 µM
GI50 (A498 renal): 10.4 µM
TGI (A498 renal): 22.4 µM
GI50 (NCI-H522 lung): 3.46 µM
TGI (NCI-H522 lung): 15.5 µM
GI50 (SK-MEL-28 melanoma): 2.68 µM
TGI (SK-MEL-28 melanoma): 7.76 µM
GI50 (MOLT-4 leukemia): 3.37 µM
TGI (MOLT-4 leukemia): > 100 µM
GI50 (RPMI-8226 leukemia): 2.71 µM
TGI (RPMI-8226 leukemia): 8.66 µM
GI50 (SF-268 CNS): 3.91 µM
TGI (SF-268 CNS): 16.3 µM
GI50 (PC-3 prostate): 7.51 µM
TGI (PC-3 prostate): 24.5 µM
GI50 (U251 CNS): 2.85 µM
TGI (U251 CNS): 8.86 µM
GI50 (A549 NSCLC): 15.5 µM
TGI (A549 NSCLC): 32.2 µM
GI50 (HCT-15 colon): 2.24 µM
TGI (HCT-15 colon): 6.28 µM
GI50 (COLO 205 colon): 2.19 µM
TGI (COLO 205 colon): 4.84 µM
GI50 (UACC-257 melanoma): 2.24 µM
TGI (UACC-257 melanoma): 5.39 µM
GI50 (HOP-62 NSCLC): 3.49 µM
TGI (HOP-62 NSCLC): 14.2 µM
GI50 (HCC-2998 colon): 9.86 µM
TGI (HCC-2998 colon): 21.8 µM
GI50 (MDA-MB-435): 3.32 µM
TGI (MDA-MB-435): 11.4 µM
GI50 (SW-620 colon): 1.51 µM
TGI (SW-620 colon): 5.6 µM
GI50 (HL-60(TB) leukemia): 4.09 µM
TGI (HL-60(TB) leukemia): 34.3 µM
GI50 (LOX IMVI melanoma): 1.76 µM
TGI (LOX IMVI melanoma): 12.4 µM
GI50 (SF-539 CNS): 4.07 µM
TGI (SF-539 CNS): 15.3 µM
GI50 (NCI-H226 lung): 10 µM
TGI (NCI-H226 lung): 24.5 µM
GI50 (786-0 renal): 5.82 µM
TGI (786-0 renal): 18.7 µM
GI50 (HCT-116 colon): 3.49 µM
TGI (HCT-116 colon): 13.6 µM
GI50 (EKVX NSCLC): 11.2 µM
TGI (EKVX NSCLC): 27.1 µM
GI50 (OVCAR-8 ovarian): 4.23 µM
TGI (OVCAR-8 ovarian): 17.4 µM
GI50 (HOP-92 NSCLC): 5.71 µM
TGI (HOP-92 NSCLC): 18.6 µM
GI50 (OVCAR-4 ovarian): 6.76 µM
TGI (OVCAR-4 ovarian): 19.6 µM
GI50 (T-47D breast): 2.38 µM
TGI (T-47D breast): 6.87 µM
GI50 (BT-549 breast): 2.63 µM
TGI (BT-549 breast): 9.33 µM
GI50 (NCI-H23 lung): 5.56 µM
TGI (NCI-H23 lung): 18.9 µM

O=C1c2[nH]cc(CN[C@@H]3CCCN3)c2C(=O)c2c1c(O)c1ccccc1c2O
GI50 (SF-295 CNS): 0.288 µM
TGI (SF-295 CNS): 1.25 µM
GI50 (UACC-62 melanoma): 1.29 µM
TGI (UACC-62 melanoma): 2.58 µM
GI50 (M14 melanoma): 1.58 µM
TGI (M14 melanoma): 3 µM
GI50 (UO-31 renal): 0.261 µM
TGI (UO-31 renal): 1.52 µM
GI50 (DU-145 prostate): 0.786 µM
TGI (DU-145 prostate): 2.04 µM
GI50 (MDA-MB-231 breast): 0.527 µM
TGI (MDA-MB-231 breast): 1.84 µM
GI50 (NCI/ADR-RES ovarian): 3.88 µM
TGI (NCI/ADR-RES ovarian): 30.6 µM
GI50 (SK-OV-3 ovarian): 0.583 µM
TGI (SK-OV-3 ovarian): 1.78 µM
GI50 (MALME-3M melanoma): 1.59 µM
TGI (MALME-3M melanoma): 3.07 µM
GI50 (CAKI-1 renal): 0.927 µM
TGI (CAKI-1 renal): 2.87 µM
GI50 (TK-10 renal): 1.07 µM
TGI (TK-10 renal): 2.29 µM
GI50 (A498 renal): 0.544 µM
TGI (A498 renal): 16.3 µM
GI50 (PC-3 prostate): 0.358 µM
TGI (PC-3 prostate): 1.51 µM
GI50 (SF-539 CNS): 1.36 µM
TGI (SF-539 CNS): 2.67 µM
GI50 (IGROV1 ovarian): 0.262 µM
TGI (IGROV1 ovarian): 1.02 µM
GI50 (HOP-92 NSCLC): 0.19 µM
TGI (HOP-92 NSCLC): 1.65 µM
GI50 (BT-549 breast): 4.67 µM
TGI (BT-549 breast): 38.4 µM
